Source: publication PMC9865052, “Miltefosine and Nifuratel Combination: A Promising Therapy for the Treatment of Leishmania donovani Visceral Leishmaniasis” (International Journal of Molecular Sciences, 2023)

Biological target: T1, Trypanothione reductase (TR) (Leishmania donovani, UniProt P39050)
T1 construct: gene TPR; native enzyme in cell extracts of L. donovani axenic amastigotes
Assay: DTNB-coupled colorimetric TR activity assay ([…] nm) in L. donovani cell extract; Lineweaver-Burk analysis
Assay type: biochemical

T1 sequence (P39050 whole entry): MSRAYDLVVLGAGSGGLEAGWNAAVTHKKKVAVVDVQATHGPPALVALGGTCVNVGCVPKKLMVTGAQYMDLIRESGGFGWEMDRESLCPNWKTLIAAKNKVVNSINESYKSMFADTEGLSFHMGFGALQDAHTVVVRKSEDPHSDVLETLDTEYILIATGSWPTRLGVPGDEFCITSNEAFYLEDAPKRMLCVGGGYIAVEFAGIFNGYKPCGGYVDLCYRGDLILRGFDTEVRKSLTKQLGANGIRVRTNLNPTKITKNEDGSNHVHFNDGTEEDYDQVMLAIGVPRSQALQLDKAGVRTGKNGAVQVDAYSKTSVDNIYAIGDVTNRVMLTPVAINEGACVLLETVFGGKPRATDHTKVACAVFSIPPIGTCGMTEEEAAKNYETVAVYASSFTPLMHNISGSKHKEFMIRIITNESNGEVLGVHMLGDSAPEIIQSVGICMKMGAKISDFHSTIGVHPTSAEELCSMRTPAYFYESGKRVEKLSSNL

## CSCC1CN(/N=C/c2ccc([N+](=O)[O-])o2)C(=O)O1 (stereo not shown) [NFT, nifuratel]
  Ki: 3.15 ± 0.5 µM
